Data set [1] concerns the target T1, M2 receptor (Rattus norvegicus, UniProt P10980).
T1 construct: To measure changes in heart rate and mean arterial pressure, rats were implanted with telemetric transmitters; from tissue; host or cells: intact living rats (cardiovascular system, telemetry)
T1 sequence (P10980 1-466): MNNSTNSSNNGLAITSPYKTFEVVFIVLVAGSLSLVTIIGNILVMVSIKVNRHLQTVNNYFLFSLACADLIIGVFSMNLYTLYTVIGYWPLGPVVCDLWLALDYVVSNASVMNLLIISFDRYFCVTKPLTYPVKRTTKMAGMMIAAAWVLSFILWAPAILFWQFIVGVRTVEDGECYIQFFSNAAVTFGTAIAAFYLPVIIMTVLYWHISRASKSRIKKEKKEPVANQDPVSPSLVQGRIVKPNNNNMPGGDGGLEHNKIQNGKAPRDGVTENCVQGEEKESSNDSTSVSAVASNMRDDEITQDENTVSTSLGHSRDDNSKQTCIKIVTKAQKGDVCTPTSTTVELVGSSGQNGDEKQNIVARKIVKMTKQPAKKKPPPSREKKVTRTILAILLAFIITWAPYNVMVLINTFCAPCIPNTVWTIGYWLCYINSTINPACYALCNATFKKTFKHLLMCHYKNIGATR
In words: Cardiovascular assay (bradycardia test): antagonism of arecoline-induced bradycardia, telemetry. It counts as in vivo. Particulars: 1 mg/kg test compound s.c. before 10 mg/kg arecoline s.c., rats, FIG. 1. An excerpt:
All rats continued to have free access to food and water at all times.

For data set [2], the system named is rats. In words: Drug discrimination test (arecoline vs saline; discriminative stimulus and rate-decreasing effects of arecoline). Format: in vivo, Sprague-Dawley rats. Particulars: 1.0 mg/kg CJ2100, rats, FIG. 2. The source says: Rats are initially trained to nose-poke 10 times in any aperture to receive a dipper of Ensure (fixed ratio 10 FR-10 schedule of reinforcement). Nose-poke biases are noted, and the following assignments are made for the 2-nose-poke condition: 1) approximately half of the rats in each group will have the drug-associated aperture on the left, and the remaining rats will have the drug-associated aperture on the right; 2) the drug-associated aperture is assigned to the non-preferred side in half of the rats.
During training, the rats are injected with saline or their training drug and immediately placed in the chamber for a 5-min blackout, followed by a 20-min response period. […]
When these criteria have been met on 3 consecutive days, testing can begin. […] When the effects of putative antagonists are to be evaluated, these drugs are given 15 min before the start of the session, and the training drug is injected immediately before the rat is placed in the chamber. […]
Data analysis: Full generalization to a test compound is defined as >85% responding on the drug-appropriate aperture, and completing at least one ratio. Discrimination data are expressed as the percent responses on the drug-appropriate aperture, out of the total number of responses made in both apertures. Rates of responding are calculated as well: total number of responses/time during the light-on parts of the session. […]

The test system of data set [3] is rats. Kind of data set: Forced swim test (FST). Format: in vivo. The following applies: 3 mg/kg, 30 min before a 15-min swim, FIG. 4. How it is done:
In the FST, the rats are injected with a test compound and 30 minutes later placed individually in a cylindrical container filled with water at room temperature. The rat's behavior is videotaped from above and is later scored by a trained observed who is blind to the drug conditions. Behavior is classified every 5 seconds over the 15 minute swim period as the following: immobility the rat is hanging quietly in the water, making only enough movement to keep its nose out of the water; swimming moving limbs in an active manner, climbing or actively moving its forepaws against the side of the chamber.
Rats of both sexes as well as rats from the Flinders straw were used for forced swim tests. The rats were injected with a saline control or CJ2100 (0.1 mg/kg, 0.3 mg/kg, 1 mg/kg, or 3 mg/kg) and 30 min later placed individually a cylindrical container (46 cm tall×20 cm, diameter) filled to 30 cm with 25° C. water for a single 15-min forced swim test. Rat behavior was videotaped from above and later scored by a trained observer who was blind to the drug conditions. Behavior was classified every 5 seconds over the 15 minute swim period as following: immobility rat was hanging quietly in the water, making only enough movement to keep its nose out of the water; swimming moving limbs in an active manner, climbing, or actively moving its forepaws against the side of the chamber. […]

Data set [4] relates to rats. In words: Cognitive evaluation: delayed-matching-to-sample (DMTS) touch-screen task, short-term memory. It counts as in vivo. Particulars: doses 0.1-3.2 mg/kg, FIG. 5 left panel. The source says:
In cognitive evaluation tests, rats are exposed to a touch screen procedure that evaluates memory (delayed matching to sample, DMTS) and attention (psychomotor vigilance). In the DTMS, a commonly used recognition task to test short-term memory, the subject (a rat) is presented with a sample stimulus. In our procedure, when the rats touch the sample stimulus it terminates on the screen. After a pre-set delay two comparison stimuli appear. A touch response on the comparison stimulus that matches some physical property of the sample stimulus (i.e. color) results in reward delivery. Touching the incorrect comparison stimulus results in a timeout. Accuracy is then plotted vs different delay values to determine a “forgetting function”. This same procedure has been used by many others to assess the deleterious effects of various classes of psychoactive drugs.
(§1) Additional tests involved a novel touch-screen procedure that evaluated memory (delayed-matching-to-sample, DMTS) and attention (psychomotor vigilance, PVT).
In the DMTS, a commonly used recognition task to test short-term memory, rats were presented with a sample stimulus. When the rats touched the sample stimulus, it terminated on the screen. After a pre-set delay, two comparison stimuli appeared. […] Accuracy was then plotted vs. different delay values to determine a “forgetting function.”

In data set [5] the test system is rats. In words: Cognitive evaluation: psychomotor vigilance (PVT) touch-screen task, attention. It counts as in vivo. The following applies: doses 0.1-10 mg/kg, FIG. 5 right panel.
Source text: Psychomotor vigilance is used to evaluate drug effects of attention and vigilance over a period of time. Championed by David Dinges of U. Penn School of Medicine, it is a reaction timed task to measure the speed with which subjects responds to a visual stimulus. In the task, stimuli of varying intensity are presented to a subject (a rat) in randomized location on the screen following unpredictable intervals. The reaction time of the rat to the stimuli will provide a reliable attention threshold in each individual subject. Attention will decrease over time which serves as a baseline for degradation of sustained vigilance. For these studies, a stimulus is presented on a screen in a random location following a variable time interval (5, 15, 30 seconds). Duration of presentation of the stimulus is 2 seconds on first trial. If the correct stimulus is touched by the rat within 2 seconds, a mild reward is delivered and duration of stimulus presentation is […] by 0.25 seconds for subsequent trials (across 500 trials).
as §1
Psychomotor vigilance (PVT) is used to evaluate drug effects on attention and vigilance over a period of time. Championed by David Dinges of U. Penn. […]

The test system of data set [6] is rats. Particulars: cited from earlier work.
The subject of data set [7] is humans. Particulars: cited from earlier work.
Where [8] appears, read: 1.0 mg/kg scopolamine (Winger et al. 2020).

SMILES strings stand for the structures. “Also recorded” adds a separate entry of the source. Where a name gives a salt, the structure may show the parent alone.

In the case of `CN1CCC=C(c2nc(C3CC3)no2)C1` [CJ2100, 3-(3-alkyl-1,2,4-oxadiazol-5-yl)-1,2,5,6-tetrahydro-1-methylpylidine oxalate], in data set [1], the “Effect on arecoline-induced bradycardia” value is given as “attenuates this effect; also recorded: complete attenuation of this effect”. The “Shift to the right in the discriminative stimulus effects of arecoline” value in data set [2] is around 1 log unit. Also, in data set [3], the “Immobility in forced swim test” value is listed as “decrease in immobility” and the “Swimming in forced swim test” value is recorded as “significant increase in swimming”. Further, in data set [4], the “Effect on ability of the rats to respond in DMTS task (cognitive effect)” value is reported as “did not modify the ability of the rats to respond; also recorded: silent” and the “Mean duration of short term memory (DMTS)” value is “approximately 7 sec”. In data set [5], the “Effect on ability of the rats to respond in PVT task (cognitive effect)” value was “did not modify the ability of the rats to respond; also recorded: silent” and the “Mean titration duration of the stimulus (PVT)” value is given as “approximately 2 sec”.
Take `CN1[C@@H]2C[C@@H](OC(=O)[C@H](CO)c3ccccc3)C[C@H]1[C@@H]1O[C@@H]12` [scopolamine]: in data set [6] (setting [8]), the “Effect on the discriminative stimulus of arecoline” value is “without affecting the discriminative stimulus of arecoline” and the “Effect on the rate-modifying effects of arecoline” value is “appeared to increase the rate-modifying effects of arecoline”. In addition, in data set [6] (compared with CJ2100), the “Ability to modify the discriminative stimulus effects of arecoline” value is given as “much less able than CJ2100 to modify” and the “Ability to modify the rate-suppressing effects of arecoline” value was “much less able than CJ2100 to modify”. Further, in data set [7], the Cognitive side effects entry is reported as “severe cognitive deficits; also recorded: cognitive impairment including memory disturbances”. In addition, in data set [7] (oral and intravenous treatment), the “Anti-depressant effect in humans” value is recorded as “rapid anti-depressant effects”.
